Measured values from US20240109843A1, “BENZALDEHYDE COMPOUNDS WITH DIRECT POLYMER DESTABILIZING EFFECTS TO TREAT SICKLE CELL DISEASE” (VIRGINIA COMMONWEALTH UNIVERSITY, priority 2018, published 2024).
Values joined by “and” are separate entries in the source; they are usually repeats but may differ in a detail not shown here. Equal entries are not always repeated.

What was measured:
[1] = system: RBCs from donors with homozygous SCD; assay: Oxygen-independent sickle inhibition in SS blood suspensions under anoxia (100% nitrogen); format: cell-based, human; conditions: anoxia
Description: To establish oxygen-independent sickle inhibition, the incubation chamber was subsequently opened and exposed to room air for 15 minutes to ensure complete re-oxygenation and reversal of the sickled cells to normal round cells. Reversal was confirmed by microscopy. The incubation chamber was then closed, and the assay was repeated with incubation in 100% nitrogen gas for 1 hour (for screening), or up to 2.5 h (for time-course studies), with collection and fixation of blood aliquots at defined intervals. Aliquot samples were again subjected to microscopic morphological analysis of bright field images to identify the proportion of sickled and non-sickled cells, and sickle inhibition calculated.

Hb [2] = target: T1, Hb (Homo sapiens, UniProt P69905); assay: Affinity (KD) for Hb; format: binding
Target sequence in this assay (P69905 2-142 limits assumed): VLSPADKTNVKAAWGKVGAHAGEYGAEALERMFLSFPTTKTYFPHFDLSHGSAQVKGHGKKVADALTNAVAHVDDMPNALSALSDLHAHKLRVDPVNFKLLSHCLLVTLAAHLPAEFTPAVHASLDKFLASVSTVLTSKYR
Target sequence in this assay (P68871 2-147 partner limits assumed): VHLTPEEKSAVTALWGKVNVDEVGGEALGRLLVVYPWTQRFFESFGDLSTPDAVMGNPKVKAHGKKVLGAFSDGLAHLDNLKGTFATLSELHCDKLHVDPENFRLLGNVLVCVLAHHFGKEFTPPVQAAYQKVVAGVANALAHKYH

[3] = Single-dose oral pharmacokinetics in rats; format: in vivo, Sprague Dawley rats; conditions: Sprague Dawley, rat; single oral dose 100 mg/kg, male rats, whole blood
Description: Single doses of each compound were administered as oral suspensions by gavage in 0.5% carboxy methylcellulose at 100 mg/kg. Whole blood levels were collected for at least 72 hours after dose administration. Bioanalyses were performed with liquid chromatography-tandem mass spectrometry […].
Single-dose pharmacokinetics (PK) in male Sprague Dawley (SD) rats (n=4) were assessed for each compound, and the maximum or peak whole blood concentration and area under the curve are shown in Table 5.

[4] = 14-day repeat-dose oral pharmacokinetics in rats; format: in vivo; conditions: SD, rat, whole blood, repeat oral doses 100 mg/kg for 14 days
Description: (§1) Repeat doses of each compound were administered once daily as oral suspensions by gavage in 0.5% carboxy methylcellulose for 14 days at 100 mg/kg. Whole blood was collected at 7 time-points for up to 24 hours during the final dosing interval on Day 14. Clinical observations, body weights, and food consumption were recorded throughout the 14 day study. Clinical chemistry and hematologic parameters were assessed, and histopathology was performed on organs after 14 days of exposure to study drug.
(§2) Repeat oral doses of each compound were administered by oral gavage for 14 days to male and female SD rats (n=3). […] Steady state exposures for the final dosing interval on Day 14 were similar to total compound exposure from single-dose PK.

[5] = 14-day repeat-dose safety (clinical observations, histopathology) in rats; format: in vivo, SD rats; conditions: for safety in non-clinical toxicology: above anticipated therapeutic drug levels; for clinical or histopathologic changes after 14 days of exposure: oral 100 mg/kg once daily for 14 days, rats
Description: as §1, §2

Hb [6] = target: T1, Hb; assay: Drug partitioning studies, fixed and unfixed Hb adducts in non-sickling AA blood; format: cell-based; set-up: Hemoglobin modification, studies using non-sickling AA blood; from tissue; host or cells: non-sickling (AA) human blood, red blood cells; conditions: 2 mM; for Fixed Adducts (%) / Unfixed Adduct (%): 6 biological replicates; for Partitioning Ratio (%): fixed relative to unfixed adducts
Description: RBC partitioning studies were conducted both for SS RBCs following sickling studies above, or as separate independent studies with non-sickle blood. Briefly, aliquots of blood samples, which had been incubated with test molecules, were lysed either in deionized water (un-fixed), or in water containing 50 mM sodium borohydride (fixed). Samples were subjected to cation exchange HPLC analyses, as described above. Modified […] (Hb adducts) was determined as a proportion of total Hb in each sample, and partitioning ratio was determined as the relative fraction of Hb modification of fixed samples compared to corresponding non-fixed samples. The partitioning ratio is the relative fraction of Hb that was modified intracellularly by molecules that permeated the RBC membrane, as compared to unfixed adducts which reflect Hb binding without RBC membrane permeation.
Target sequence in this assay (P69905 2-142 limits assumed): as the sequence (P69905 2-142 limits assumed) above
Target sequence in this assay (P68871 2-147 partner limits assumed): as the sequence (P68871 2-147 partner limits assumed) above

Hb [7] = target: T1, Hb; assay: Dose-dependent P50 shift in non-sickling human blood; format: cell-based; set-up: Hemoglobin modification, studies using non-sickling AA blood; from tissue; host or cells: non-sickling (AA) human blood, red blood cells; conditions: compared to Voxelotor at equivalent drug-Hb occupancy levels
Description: Non-sickling human blood was incubated with test compounds at 0.25-2 mM concentrations at 37° C. for 1 hour in 96-well round bottom plates. At conclusion, RBCs were washed once with PBS, followed by lysis with deionized water. Approximately 100 μl aliquots of individual lysates were added to 3 mL of 0.1M potassium phosphate buffer, pH 7.0 in a cuvette and subjected to hemoximetry analysis using a Hemox™ Analyzer (TCS Scientific Corp.) as previously described. Change in p50 values (Δp50) was calculated by subtracting the p50 values of treated samples from the value of the control sample and expressing the difference as a percentage of control p50 values.
Target sequence in this assay (P69905 2-142 limits assumed): as the sequence (P69905 2-142 limits assumed) above
Target sequence in this assay (P68871 2-147 partner limits assumed): as the sequence (P68871 2-147 partner limits assumed) above

Hb [8] = target: T1, Hb; assay: Hb modification (drug-adduct formation) in SS blood suspensions by cation-exchange HPLC; format: binding; set-up: Blood suspensions from subjects with homozygous SCD; from tissue; host or cells: blood suspensions (20% hematocrit) from donors with homozygous SCD; lysates of the treated red cells; conditions: 2 mM, 4 biological replicates
Description: All compounds (Comp 1-13) and comparator molecules (VZHE-039, PP-14, INN-310, and Voxelotor) were evaluated following established procedures. Blood samples from individual donors with homozygous SCD (obtained with informed consent) were diluted using Hemox buffer solution with the addition of glucose (10 mM) and BSA (0.2%) to adjust hematocrit of the blood suspensions to 20%, which standardizes the procedure to normalize the ratio of RBCs to drug, for assay consistency and reproducibility. Briefly, blood suspensions were incubated under room air in the presence of various concentrations of test compounds (0-2 mM) at 37° C. for 1 hour in 96-well round bottom plates. Subsequently, the suspensions were incubated with a hypoxic gas mixture (2.5% Oxygen gas/balance Nitrogen gas) at 37° C. for up to 2 hours prior to fixation with 2% glutaraldehyde solution without exposure to air. The fixated blood aliquots were evaluated by microscopic morphological analysis (image analysis on Image J software) to identify the proportion of sickled and non-sickled RBCs, and sickle inhibition calculated based on the % change from negative control (DMSO).
The residual samples were then washed in phosphate-buffered saline, and hemolyzed in hypotonic lysis buffer, with or without sodium borohydride (50 mM). Aliquots obtained from the lysates with or without sodium borohydride (to reduce Schiff base adducts) were also assessed for level of Hb modification (drug-adduct formation) by cation-exchange HPLC (Hitachi D-7000 Series, Hitachi Instruments, Inc., San Jose, CA) with a weak cation-exchange column (Poly CAT A: 50 mm×4.6 mm, Poly LC, Inc., Columbia, MD). Hemoglobin isotype peaks are eluted with a linear gradient of phase B from 0% to 80% at A410 nm (Mobile Phase A: 40 mM Bis-Tris, 2 mM KCN, pH 6.9; Phase B: 40 mM Bis-Tris, 2 mM KCN, 0.2 M sodium chloride, pH 6.55). Clarified lysate from normal human adult […] (Hb A), as well as commercial standards containing approximately equal amounts of Hb F, A, S and C (Helena Laboratories, Beaumont, TX), were utilized as reference isotypes. Reduced samples were used to assess “fixed adduct” formation (dependent on RBC membrane permeability), whereas non-reduced samples assessed drug-adduct formation independent of drug permeability.
Target sequence in this assay (P69905 2-142): as the sequence (P69905 2-142 limits assumed) above
Target sequence in this assay (P68871 with tags, fused parts or gaps E7V partner): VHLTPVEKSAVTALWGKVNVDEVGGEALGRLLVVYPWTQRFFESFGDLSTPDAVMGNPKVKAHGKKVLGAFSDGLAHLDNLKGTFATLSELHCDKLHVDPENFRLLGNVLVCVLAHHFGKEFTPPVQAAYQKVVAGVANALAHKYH

[9] = patients with SCD, most patients; cited from earlier work
[10] = female rats, read-out: AUC0-∞ (female)
[11] = female rats, read-out: Cmax (female)
[12] = male rats, read-out: AUC0-∞ (male)
[13] = male rats, read-out: Cmax (male)

Compound | polymer destabilizing effect / sickle inhibition in anoxia (in words) [1] | Kd (Hb [2]) [µM] | AUC(0-inf) [3] | Cmax [3] | half-life [3] [h] | AUC(0-inf) [4, 10] | Cmax [4, 11] | AUC(0-inf) [4, 12] | Cmax [4, 13] | safety in non-clinical toxicology [5] | clinical or histopathologic changes after 14 days of exposure [5] | Fixed Adducts (%) (Hb [6]) | Unfixed Adduct (%) (Hb [6]) | Partitioning Ratio (%) (Hb [6]) | change in p50 of Hb in human blood (in words) (Hb [7]) | Hb Modification (%) (Hb [8]) | increase in Hb concentrations [9]
O=Cc1c(O)cccc1OCc1cccnc1 [Comp 1, 2-hydroxy-6-(pyridin-3-ylmethoxy)benzaldehyde] | most potent and sustained polymer destabilizing effects observed to date | 60 | 4e+06 ng·h/mL and 17400 µM·h | 211000 ng/mL and 919 µM | 5 | 1.9e+06 ng·h/mL and 8080 µM·h | 122000 ng/mL and 534 µM | 2.4e+06 ng·h/mL and 10500 µM·h | 161000 ng/mL and 703 µM | without hepatotoxicity | No clinical or histopathologic changes | 96.0 ± 1.9 | 97.4 ± 2.8 | 98.6 ± 2.8 | relatively weak changes in p50 | 95.8 ± 6.2 | –
O=Cc1c(O)cccc1OCc1ccccn1 [Comp 2, 2-hydroxy-6-(pyridin-2-ylmethoxy)benzaldehyde] | most potent and sustained polymer destabilizing effects observed to date | – | 4.5e+06 ng·h/mL and 19800 µM·h | 220000 ng/mL and 958 µM | 9.7 | 4.9e+06 ng·h/mL and 21500 µM·h | 254000 ng/mL and 1.11 mM | 4.7e+06 ng·h/mL and 20400 µM·h | 254000 ng/mL and 1.11 mM | without hepatotoxicity | No clinical or histopathologic changes | 95.2 ± 2.3 | 96.3 ± 2.6 | 98.9 ± 2.9 | relatively weak changes in p50 | 95.5 ± 5.7 | –
O=Cc1c(O)cccc1OCc1ncccc1F [Comp 5, 2-((3-fluoropyridin-2-yl)methoxy)-6-hydroxybenzaldehyde] | – | – | 3e+06 ng·h/mL and 12000 µM·h | 86000 ng/mL and 348 µM | 8.8 | 5.1e+06 ng·h/mL and 20600 µM·h | 246000 ng/mL and 993 µM | 4.2e+06 ng·h/mL and 17100 µM·h | 211000 ng/mL and 854 µM | without hepatotoxicity | No clinical or histopathologic changes | 93.1 ± 3.3 | 95.8 ± 3.3 | 97.2 ± 3.2 | relatively weak changes in p50 | 98.2 ± 2.5 | –
O=Cc1c(O)cccc1OCc1cccc(CO)n1 [VZHE-039, reference compound] | – | 100 | 2.3e+06 ng·h/mL and 8780 µM·h | 102000 ng/mL and 394 µM | 8.4 | 3.2e+06 ng·h/mL and 12200 µM·h | 232000 ng/mL and 894 µM | 3e+06 ng·h/mL and 11600 µM·h | 195000 ng/mL and 753 µM | – | clinical and histopathologic changes in the liver, including hepatocyte necrosis | 90.9 ± 3.4 | 92.4 ± 5.6 | 98.5 ± 4.3 | – | 90.7 ± 9.9 | –
CC(C)n1nccc1-c1ncccc1COc1cccc(O)c1C=O [Voxelotor, reference compound] | did not demonstrate any sickle inhibition in anoxic conditions | – | – | – | – | 2.6e+06 ng·h/mL and 7620 µM·h | 185000 ng/mL and 548 µM | 2.3e+06 ng·h/mL and 6760 µM·h | 142000 ng/mL and 422 µM | – | – | 77.0 ± 3.8 | 80.3 ± 6.3 | 96.1 ± 3.7 | – | 92.3 ± 6.8 | at least 1 g/dl
